{"source": "patent US8298793B2", "about": "“Methods for isolating proteons from plasma samples” (Auburn University, priority 2002, dated 2012)", "key": {"proteons": {"tested_on": "proteons", "test": "Proteon formation in plasma, counted by dark-field microscopy", "format": "biochemical", "details": "for number of proteons visible by dark-field microscopy: added to proteons produced without chaotropic compounds, then 120° C. and 20 psi; for number of proteons with rising concentration of chaotropic compound: plasma with 0, 0.01, 0.1, 1, 4 and 8 M, 120° C., 20 psi, dark-field microscopy"}, "RG2 cells": {"tested_on": "RG2 cells", "test": "MTT cell proliferation assay on RG2 glioma cells", "format": "cell-based, mouse"}, "[1]": {"tested_on": "27FR (rat skin fibroblast) cells", "test": "MTT cell proliferation assay on fibroblasts", "format": "cell-based", "details": "Fibro, Staurosporine, 1% FCS", "source_text": "(§1) The impact of PNCs upon viability of various cultured cells was investigated using the tetrazolium salt (MTT) cell proliferation assay. RG2 ([…] brain glioma), F98 (rat brain glioma), Hs683 (human brain glioma), CTX TNA2 (rat transfected astrocyte), H9c2[2-1] (rat heart myocardium), 27FR (rat skin fibroblast), and SVGp12 (human brain astroglia) cells were obtained from American Type Culture Collection (ATCC) and maintained as recommended by ATCC. MTT cell proliferation assays are commercially available. See, e.g., MTT cell proliferation assay from ATCC. Cells were plated in Dulbecco's modified Eagle's growth medium ([…], Sigma Chemical Inc., St. […] PNCs were isolated from blood obtained from shark, dog, and rabbit using the ultrafiltration protocol described in Example 5. PNCs were autoclaved at 120° C. and 20 psi for 15 minutes before adding to the cell cultures. […] MTT was reduced in metabolically active cells to form purple formazan crystals, which were dissolved by DMSO and quantified by a BIO-RADTM plate reader. For each cell type, a linear relationship between cell number and absorbance is established, enabling accurate, straightforward quantification of changes in proliferation."}, "[2]": {"tested_on": "H9c2[2-1] (rat heart myocardium) cells", "test": "MTT cell proliferation assay on myocardium cells", "format": "cell-based", "details": "Staurosporine, 1% FCS, concentration not given", "source_text": "as §1"}, "[3]": {"tested_on": "CTX TNA2 (rat transfected astrocyte) cells", "test": "MTT cell proliferation assay on CTX astrocytes", "format": "cell-based", "details": "CTX astro, Staurosporine, 1% FCS", "source_text": "as §1"}, "[4]": {"tested_on": "SVGp12 (human brain astroglia) cells", "test": "MTT cell proliferation assay on SVG astrocytes", "format": "cell-based", "details": "SVG astro, Staurosporine, 1% FCS, concentration not printed; for Absorbance at 550 nm (MTT), single well: listed as Staurosporine", "source_text": "as §1"}, "[5]": {"tested_on": "F98 (rat brain glioma) cells", "test": "MTT cell proliferation assay on F98 glioma cells", "format": "cell-based", "details": "Staurosporine, 1% FCS, concentration not printed; for Absorbance at 550 nm (MTT), single well: listed as Staurosporine", "source_text": "as §1"}, "[6]": {"details": "RG2, 10% FCS, staurosporine 1 μM, Table 6"}, "[7]": {"details": "RG2, Staurosporine 100 urn, 1% FCS, Table 10"}, "[8]": {"details": "RG2, Staurosporine, 1% FCS, Table 10, concentration not given"}, "[9]": {"details": "Table 10, concentration not given"}, "[10]": {"details": "myocard, Table 10 second myocard column"}}, "note": "Where “and” joins values, the source holds several entries; their conditions need not be identical. Equal entries are not always repeated. Entries after “also recorded” stand apart in the source; their conditions may differ. Structures can show the parent of a compound that is named as a salt."}
{"smiles": "O=C(O)CN(CCN(CC(=O)O)CC(=O)O)CC(=O)O", "note": "[EDTA, ethylene diamine tetra acetate]", "values": [{"measurement": "effect on formation of proteons from plasma", "setting": "proteons; 10 mM EDTA added", "value": "prevented the formation of proteon; also recorded: production was quenched"}]}
{"smiles": "N=C(N)N", "note": "[guanidine hydrochloride]", "values": [{"measurement": "number of proteons visible by dark-field microscopy", "setting": "proteons", "value": "great reduction"}, {"measurement": "number of proteons with rising concentration of chaotropic compound", "setting": "proteons", "value": "decreased"}]}
{"smiles": "CN[C@@H]1C[C@H]2O[C@@](C)([C@@H]1OC)n1c3ccccc3c3c4c(c5c6ccccc6n2c5c31)C(=O)NC4", "note": "[staurosporine]", "values": [{"measurement": "Ab. Av. (Absorbance at 550 nm, MTT)", "setting": "RG2 cells; [6]", "value": 0.4053}, {"measurement": "Absorbance at 550 nm (MTT), single well", "setting": "RG2 cells; [6]", "value": "0.406 and 0.411 and 0.399"}, {"measurement": "Ab. Av. (Absorbance at 550 nm, MTT)", "setting": "RG2 cells; [7]", "value": 0.2893}, {"measurement": "Absorbance at 550 nm (MTT), single well", "setting": "RG2 cells; [7]", "value": "0.272 and 0.279"}, {"measurement": "Ab. Av. (Absorbance at 550 nm, MTT)", "setting": "RG2 cells; [8]", "value": 0.1268}, {"measurement": "Absorbance at 550 nm (MTT), single well", "setting": "RG2 cells; [8]", "value": "0.149 and 0.12 and 0.119"}, {"measurement": "Ab Av. (Absorbance at 550 nm, MTT)", "setting": "RG2 cells; RG2, stauro 1% FCS (1 μM per protocol b158), Table 7", "value": 0.09867}, {"measurement": "Ab. Av. (Absorbance at 550 nm, MTT)", "setting": "[1]; [9]", "value": 0.2757}, {"measurement": "Absorbance at 550 nm (MTT), single well", "setting": "[1]; [9]", "value": "0.296 and 0.257 and 0.275"}, {"measurement": "Ab. Av. (Absorbance at 550 nm, MTT)", "setting": "[1]; Table 10 second Fibro column, concentration not given", "value": 0.169}, {"measurement": "Ab. Av. (Absorbance at 550 nm, MTT)", "setting": "[2]; Myocard, Table 10 first Myocard column", "value": 0.283}, {"measurement": "Ab. Av. (Absorbance at 550 nm, MTT)", "setting": "[2]; [10]", "value": 0.16}, {"measurement": "Absorbance at 550 nm (MTT), single well", "setting": "[2]; [10]", "value": 0.176}, {"measurement": "Ab. Av. (Absorbance at 550 nm, MTT)", "setting": "[3]; [9]", "value": 0.1445}, {"measurement": "Absorbance at 550 nm (MTT), single well", "setting": "[3]; [9]", "value": "0.122 and 0.118 and 0.126"}, {"measurement": "Ab. Av. (Absorbance at 550 nm, MTT)", "setting": "[3]; Table 10 first CTX column, concentration not given", "value": 0.3782}, {"measurement": "Ab. Av. (Absorbance at 550 nm, MTT)", "setting": "[4]; Table 10 first SVG column", "value": 0.128}, {"measurement": "Absorbance at 550 nm (MTT), single well", "setting": "[4]; Table 10 first SVG column", "value": "0.128 and 0.12 and 0.136"}, {"measurement": "Ab. Av. (Absorbance at 550 nm, MTT)", "setting": "[4]; Table 10 second SVG column", "value": 0.067}, {"measurement": "Absorbance at 550 nm (MTT), single well", "setting": "[4]; Table 10 second SVG column", "value": "0.067 and 0.066 and 0.068"}, {"measurement": "Ab. Av. (Absorbance at 550 nm, MTT)", "setting": "[5]; Table 10 first F98 column", "value": 0.1333}, {"measurement": "Absorbance at 550 nm (MTT), single well", "setting": "[5]; Table 10 first F98 column", "value": "0.136 and 0.138 and 0.12 and 0.139"}, {"measurement": "Ab. Av. (Absorbance at 550 nm, MTT)", "setting": "[5]; Table 10 second F98 column", "value": 0.1085}, {"measurement": "Absorbance at 550 nm (MTT), single well", "setting": "[5]; Table 10 second F98 column", "value": "0.108 and 0.109"}]}
{"smiles": "NC(N)=O", "note": "[urea]", "values": [{"measurement": "number of proteons visible by dark-field microscopy", "setting": "proteons", "value": "great reduction"}, {"measurement": "number of proteons with rising concentration of chaotropic compound", "setting": "proteons", "value": "decreased"}]}
